Assay results as given in paper PMC8092523 (Antimicrobial Agents and Chemotherapy, 2021).

How the values were obtained:
pYL42 and pYL53 strains = type: cell-based, Mycobacterium smegmatis
[1] = test system: mc^27000:Δc− strain with pYL60 or pYL3; type: cell-based, M. tuberculosis

SMILES: CN[C@@H]1[C@H](O)[C@H](NC)[C@H]2O[C@]3(O)[C@H](O[C@@H]2[C@H]1O)O[C@H](C)C[C@H]3NC(=O)Cc1ccc(Cl)cn1 [Spa]
- bactericidal activity against pYL53 compared with pYL42 strain (pYL42 and pYL53 strains): at least an order of magnitude lower
- bactericidal activity against pYL60 strain compared with pYL3 control strain [1]: significantly decreased
